Assay results from patent US11806343B2, “Inhibitors of DUX4 induction for regulation of muscle function” (Sonic Master Limited, priority 2017, dated 2023).
Where “and” joins values, the source holds several entries; their conditions need not be identical. Identical values can stand only once.

Experiments:
DUX4 [1] = experiment: DUX4 expression downregulation by kinase family inhibitors (Table 1); type: cell-based; details: for EC50: DUX4 reduction; for Quantitation % of DUX4 reduction @the lowest significant [C]: at the lowest significant concentration; for lowest significant [C]: concentration in brackets at which the % DUX4 reduction is given
DUX4 [2] = experiment: FSHD hESC-SkM immunocytochemistry, DUX4 expression; type: cell-based, human; details: Genea049 hESC-SkM
Procedure: (§1) FIG. 6 provides an example of a screening and culturing workflow for hESC-SkM assays. At Day 0, hESC-derived myoblasts are thawed into a 96-well plate in myoblast medium (Genea BioCells). On Day 2, the medium is replaced with new myoblast medium containing 1.15 μM. Decitabine. […] On Day 7, the myotubes are analyzed. For example, the myotubes may be analyzed for MHC expression or DUX4 expression.
(§2) Genea049 FSHD-affected human Embryonic Stem Cells (hESCs) were differentiated using Genea's myogenic differentiation protocol (Caron et 2015) to the myoblast stage and cryopreserved. Frozen myoblasts were resuscitated and 4500 cells were plated into each well of a 96-well collagen I coated tissue culture plate in myoblast medium. After two days of cell growth medium was changed to 100 μL per well myoblast medium containing 1.15 μM Decitabine. […] Cells were allowed to differentiate to myotubes for four additional days then were fixed and analyzed for quantification of DUX4 expression, Myosin Heavy Chain expression, and nuclei number. Triplicate wells of each condition were averaged.
as §2, with “et al.,” for “et”, “number by high-content imaging.” for “number.”

Genea049 FSHD hESC-SkM = experiment: FSHD hESC-SkM immunocytochemistry, Myosin Heavy Chain and nuclei (myogenic inhibition/toxicity); type: cell-based, human
Procedure: as §1, §2
as §2, with “et al.,” for “et”, “number by high-content imaging.” for “number.”

Row | SMILES | EC50 (DUX4 [1]) | Quantitation % of DUX4 reduction @the lowest significant [C] (DUX4 [1]) | lowest significant [C] (DUX4 [1]) [µM] | DUX4 expression (DUX4 [2]; 100 nM, four days of culture during myotube formation) | DUX4 expression, dose curve (DUX4 [2]; six concentration points 10 nM-3 μM, four days) | Myosin Heavy Chain expression and nuclei count, dose curve (Genea049 FSHD hESC-SkM; 10 nM-3 μM, four days) | Myosin Heavy Chain expression and nuclei count (Genea049 FSHD hESC-SkM; 100 nM, four days of culture)
1 | Cc1ccc(NC(=O)c2ccc(CN3CC[C@H](N(C)C)C3)c(C(F)(F)F)c2)cc1Nc1nccc(-c2cncnc2)n1 [Bafetinib] | 132 nM | 67.90% | 2.08 |  |  |  | 
2 | COc1cc(Nc2c(C#N)cnc3cc(OCCCN4CCN(C)CC4)c(OC)cc23)c(Cl)cc1Cl [Bosutinib] |  | 70.58% | 3 |  |  |  | 
3 | Cc1ncc(NC(=O)c2ccc(CN3CCN(C)CC3)c(C(F)(F)F)c2)cc1Nc1nccc(-c2cccnc2)n1 [Flumatinib] | 82 nM | 76.09% | 2.08 |  |  |  | 
4 | NS(=O)(=O)OC[C@@H]1C[C@@H](n2ccc3c(N[C@H]4CCc5ccccc54)ncnc32)C[C@@H]1O [GBC0772, MLN4924] |  |  |  | decreased DUX4 expression | dose-dependent decreased DUX4 expression | decreased Myosin Heavy Chain expression and nuclei count | decreased Myosin Heavy Chain expression and nuclei count
5 | Cc1ccc(NC(=O)c2ccc(CN3CCN(C)CC3)cc2)cc1Nc1nccc(-c2cccnc2)n1 [Imatinib] |  | 61.13% |  |  |  |  | 
6 | Cc1ccc(NC(=O)c2ccc(CN3CC[C@H](N(C)C)C3)c(C(F)(F)F)c2)cc1Nc1ncc(-c2cncnc2)cn1 [Lyn-IN-1] | 175 nM | 70.73% | 0.88 |  |  |  | 
7 | Cc1cn(-c2cc(NC(=O)c3ccc(C)c(Nc4nccc(-c5cccnc5)n4)c3)cc(C(F)(F)F)c2)cn1 [Nilotinib] |  | 76.71% | 5 |  |  |  | 
8 | CC(C)(C)n1nc(-c2ccc(Cl)cc2)c2c(N)ncnc21 [PP2] | 153 nM and 287 nM | 41.77% and 66.61% |  |  |  |  | 
